From PMC6277434, “Discovery of a potent HMG-CoA reductase degrader that eliminates statin-induced reductase accumulation and lowers cholesterol” (Nature Communications, 2018)

Assays:
HMGCR (TM1-8)-GFP [1] = target: T1, HMGCR (TM1-8)-GFP (Cricetulus griseus, UniProt P00347); assay: HMGCR (TM1-8)-GFP fluorescent assay (high-content imaging) in CHG cells; conditions: read-out: Mean (HMGCR (TM1-8)-GFP signal relative to 0 μM = 100)
T1 sequence (P00347 1-346): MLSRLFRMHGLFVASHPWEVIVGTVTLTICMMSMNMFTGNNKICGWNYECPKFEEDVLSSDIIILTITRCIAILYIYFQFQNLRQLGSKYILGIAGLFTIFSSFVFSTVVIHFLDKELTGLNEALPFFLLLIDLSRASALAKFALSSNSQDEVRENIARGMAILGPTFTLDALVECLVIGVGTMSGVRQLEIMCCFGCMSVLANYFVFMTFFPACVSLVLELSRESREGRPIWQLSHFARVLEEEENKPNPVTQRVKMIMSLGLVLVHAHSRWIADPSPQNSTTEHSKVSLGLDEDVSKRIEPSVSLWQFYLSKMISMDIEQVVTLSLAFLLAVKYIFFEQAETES

HMGCR (TM1-8)-GFP [2] = target: T1, HMGCR (TM1-8)-GFP

Compound | remaining activity at 0.156 µM (HMGCR (TM1-8)-GFP [1]) [%] | remaining activity at 0.313 µM (HMGCR (TM1-8)-GFP [1]) [%] | remaining activity at 0.625 µM (HMGCR (TM1-8)-GFP [1]) [%] | remaining activity at 1.25 µM (HMGCR (TM1-8)-GFP [1]) [%] | remaining activity at 2.5 µM (HMGCR (TM1-8)-GFP [1]) [%] | remaining activity at 5 µM (HMGCR (TM1-8)-GFP [1]) [%] | remaining activity at 10 µM (HMGCR (TM1-8)-GFP [1]) [%] | DC50 (HMGCR (TM1-8)-GFP [2]) [nM]
CCC(O)CC[C@@H](C)C1CCC2C3C(CC[C@@]21C)[C@@]1(C)CC[C@H](O)C(C)(C)C1=C[C@@H]3O (stereo partly shown) [Compound 64] | 100 | 104 | 88.2 | 68.2 | 52.2 | 35.6 | 27 | 3060
C=CCC(O)CC[C@@H](C)C1CCC2C3C(CC[C@@]21C)[C@@]1(C)CC[C@H](O)C(C)(C)C1=C[C@@H]3O (stereo partly shown) [Compound 65] | 108 | 103 | 93.6 | 78.4 | 40.4 | 22.1 | 14 | 2330
COC(=O)CCC[C@@H](C)C1CCC2C3C(CC[C@@]21C)[C@@]1(C)CC[C@H](O)C(C)(C)C1=C[C@@H]3O (stereo partly shown) [Compound 72] | 109 | 104 | 96.6 | 89.7 | 77.5 | 56.3 | 40.9 | 6770
C[C@H](CCCC(=O)O)C1CCC2C3C(CC[C@@]21C)[C@@]1(C)CC[C@H](O)C(C)(C)C1=C[C@@H]3O (stereo partly shown) [Compound 73] | 97 | 97.9 | 97.7 | 98.1 | 92.6 | 87.2 | 81.4 | 60600
C[C@H](CCCCO)C1CCC2C3C(CC[C@@]21C)[C@@]1(C)CC[C@H](O)C(C)(C)C1=C[C@@H]3O (stereo partly shown) [Compound 74] | 96.8 | 94.2 | 92.9 | 83.2 | 62.6 | 44.4 | 33 | 4520
COCCCC[C@@H](C)C1CCC2C3C(CC[C@@]21C)[C@@]1(C)CC[C@H](O)C(C)(C)C1=C[C@@H]3O (stereo partly shown) [Compound 78] | 105 | 98 | 81.1 | 60.7 | 36.9 | 21.4 | 15.7 | 1850
C[C@H](CCCC(C)(C)O)C1CCC2C3C(CC[C@@]21C)[C@@]1(C)CC[C@H](O)C(C)(C)C1=C[C@@H]3O (stereo partly shown) [Compound 79] | 87.9 | 77.2 | 59.3 | 38.6 | 23.5 | 16.1 | 12.2 | 640
CCC(O)(CC)CCC[C@@H](C)C1CCC2C3C(CC[C@@]21C)[C@@]1(C)CC[C@H](O)C(C)(C)C1=C[C@@H]3O (stereo partly shown) [Compound 80] | 85.3 | 75.8 | 58.1 | 33.7 | 18.3 | 12.1 | 10.3 | 550
CC(O)CCC[C@@H](C)C1CCC2C3C(CC[C@@]21C)[C@@]1(C)CC[C@H](O)C(C)(C)C1=C[C@@H]3O (stereo partly shown) [Compound 86] | 96.6 | 88.8 | 78.7 | 64.4 | 44.4 | 28.4 | 19.7 | 2170
CCC(O)CCC[C@@H](C)C1CCC2C3C(CC[C@@]21C)[C@@]1(C)CC[C@H](O)C(C)(C)C1=C[C@@H]3O (stereo partly shown) [Compound 87] | 91.3 | 78.3 | 62.1 | 43.1 | 26.7 | 20.1 | 18.9 | 1080
C=CCC(O)CCC[C@@H](C)C1CCC2C3C(CC[C@@]21C)[C@@]1(C)CC[C@H](O)C(C)(C)C1=C[C@@H]3O (stereo partly shown) [Compound 88] | 82.3 | 75.6 | 67.9 | 37.1 | 17.6 | 12 | 16.6 | 910
